Experimental data: patent publication US6353120B2, “Process for the preparation of a paclitaxel C-4 methyl carbonate analog” (Bristol-Myers Squibb Company, priority 1999, dated 2002)

Assays:
[1] = system: HCT/pk human colon carcinoma xenograft (multidrug resistant tumor model); assay: distal site tumor model, HCT/pk human colon carcinoma xenograft; type: in vivo
[2] = system: L2987 human lung carcinoma xenograft; assay: distal site tumor model, L2987 human lung carcinoma xenograft; type: in vivo
[3] = system: M109 murine lung carcinoma; assay: distal site tumor model, M109 murine lung carcinoma; type: in vivo
[4] = system: HOC79, a clinically derived Taxol unresponsive ovarian carcinoma xenograft; assay: distal site tumor model, HOC79 ovarian carcinoma xenograft; type: in vivo
tubulin = tubulin polymerization assay; type: biochemical

In the case of “C-4 methylcarbonate analog of paclitaxel [Compound I]”, the “antitumor activity compared with paclitaxel” value [1] is reported as “superior to paclitaxel”, the “antitumor activity compared with paclitaxel” value [2] is reported as “superior to paclitaxel” and the “antitumor activity compared with paclitaxel” value [3] is reported as “superior to paclitaxel”. The “antitumor activity compared with paclitaxel” value [4] was “superior to paclitaxel” and the “potency in tubulin polymerization relative to paclitaxel” value (tubulin) was “about twice as potent as paclitaxel”.
